Values of other authors, collected in patent publication US20220265689A1, “HIV PRE-EXPOSURE PROPHYLAXIS” (THE UNITED STATES OF AMERICA ,AS REPRESENTED BY THE …, priority 2019, published 2022).

Tested on: HIV-1
Details: HIV-1 T cells, activated PBMCs, macrophages

## CC(C)OC(=O)[C@H](C)N[P@](=O)(CO[C@H](C)Cn1cnc2c(N)ncnc21)Oc1ccccc1 [TAF, tenofovir alafenamide]
  enhanced anti-HIV activity relative to tenofovir: 500- to 10300 fold
